1 molecule from paper PMC7496275, “Pentathiepins: A Novel Class of Glutathione Peroxidase 1 Inhibitors that Induce Oxidative Stress, Loss of Mitochondrial Membrane Potential and Apoptosis in Human Cancer Cells” (Chemmedchem, 2020) can be followed below.

Each structure is given as a SMILES string.

The assay relates to HAP-1 cells. Briefly: Fluorescence microscopy of mitochondrial membrane potential (JC-1). The format is cell-based, human. As to conditions: positive control, 2.5 μg/L, 1 h.

Source text: To determine if 4 influences the mitochondrial membrane potential (MMP), the fluorescent dye JC‐1 was used together with fluorescence microscopy.
Fluorescence microscopy of mitochondrial membrane potential: To detect possible effects of 5 on the mitochondrial membrane potential (MMP) of HAP‐1 cells the fluorescent dye JC‐1 was used.39 JC‐1 accumulates into living cells and is present in monomers in the cytosol. It can also cross the membrane of active mitochondria, were aggregates form. When excited at λ=488 nm, JC‐1 monomers give a green fluorescence while JC‐1 aggregates show red fluorescence. […] Briefly, 10^5 cells in 500 μL medium were seeded out into a chamber of a four‐well chamber‐slide and allowed to attach for 24 h. After incubation with 4 at various concentrations, cells were exposed to the JC‐1 solution for 15 min according to the manufacturer's protocol (BD Bioscience, USA). Cells on the slides were then mounted and examined with a Leica DMi8 fluorescence microscope (Leica, Germany), at λ ex/em=488/512–542 nm for JC‐1 monomers and λ ex/em=488/565–605 nm for agglomerates.

Turning to `N#CC(C#N)=NNc1ccc(OC(F)(F)F)cc1` [FCCP, carbonyl cyanide‐p‐trifluoromethoxyphenylhydrazone], the “mitochondrial membrane potential (MMP)” value is recorded as “complete loss of MMP”.
